{
  "source": "PubChem BioAssay AID624254",
  "about": "(Broad Institute, 2012)",
  "note": "Activity calls are given as the source filed them. The rule behind the calls is not given here.",
  "data": [
    {"molecular_target": "not listed separately", "experiment": "Luciferase light induction in v cholerae bh1651, agonist dose response, confirmatory (AID 624254)", "details": "V. cholerae BH1651 luxOD47E, luciferase light induction, 6 h; at 50 µM (top of the series)", "values": [
      {"smiles": "CCc1nc(NCCCN2CCOCC2)c2oc3ccccc3c2n1", "activation (light increase)": "inactive"},
      {"smiles": "Cc1nnc(NC(=O)c2cccc(S(=O)(=O)N3CCc4ccccc43)c2)s1", "activation (light increase)": "inactive"},
      {"smiles": "COC(=O)c1ccc(C2C(C(C)=O)=C(O)C(=O)N2CCO)cc1", "note": "(stereo not given)", "activation (light increase)": "inactive"},
      {"smiles": "C=Cn1c(C(=O)O)ccc1-c1ccccc1", "activation (light increase)": "inactive"},
      {"smiles": "C[C@H](NC(=O)c1ccco1)C(=O)Nc1ccc(S(=O)(=O)N2CCCC2)cc1", "activation (light increase)": "inactive"},
      {"smiles": "Cn1cnc(S(=O)(=O)Nc2ccc(F)cc2)c1", "activation (light increase)": "inactive"},
      {"smiles": "COCCNC(=S)N(CCCO)Cc1cc2cc3c(cc2[nH]c1=O)OCCO3", "activation (light increase)": "inactive"},
      {"smiles": "Cn1c(CNc2cccc(Cl)c2)nnc1SCC(=O)OC1CCCCC1", "activation (light increase)": "inactive"},
      {"smiles": "Cc1cc(C(=O)OCC(=O)Nc2ccccc2F)c(C)o1", "activation (light increase)": "inactive"},
      {"smiles": "CCOC(=O)CC(=O)Nc1nnc(C(C)C)s1", "activation (light increase)": "inactive"},
      {"smiles": "Cc1noc(C)c1COc1ccc(C(=O)NCC(c2c(F)cccc2Cl)N(C)C)cc1", "note": "(stereo not given)", "activation (light increase)": "inactive"},
      {"smiles": "CCCc1cc(=O)[nH]c(Nc2ccc(N3CCCCC3)cc2)n1", "activation (light increase)": "inactive"},
      {"smiles": "CCN1CCCC1CNC(=O)c1cc(OC)c(OC)c(OC)c1", "note": "(stereo not given)", "activation (light increase)": "inactive"},
      {"smiles": "O=c1c2ccccc2nnn1CSc1nnc(-c2cccnc2)n1-c1ccccc1F", "activation (light increase)": "inactive"},
      {"smiles": "CCOC(=O)C1=C(C)NC(SC)=NC1c1ccc(OC)cc1", "note": "(stereo not given)", "activation (light increase)": "inactive"},
      {"smiles": "CCOC(=O)C1CCCN(Cc2cccc(Cl)c2)C1", "note": "(stereo not given)", "activation (light increase)": "inactive"},
      {"smiles": "CCCCOC(=O)n1c(=O)oc2ccccc21", "activation (light increase)": "inactive"},
      {"smiles": "CCc1ccc(C(=O)OCC(=O)NC2CCCC2)cc1", "activation (light increase)": "inactive"},
      {"smiles": "Cc1cccc(N2CCN(C(=O)Cn3cccc3C(=O)c3ccccc3)CC2)c1C", "activation (light increase)": "inactive"},
      {"smiles": "COc1ccc(Cc2nn[nH]n2)cc1", "activation (light increase)": "inactive"},
      {"smiles": "Clc1ncnc2scc(-c3ccccc3)c12", "activation (light increase)": "inactive"},
      {"smiles": "COc1cc(C(C)=O)ccc1OCC(=O)Nc1cc(Cl)ccc1-n1cncn1", "activation (light increase)": "inactive"},
      {"smiles": "CCOc1ccc(Nc2nc3c(c(=O)[nH]2)CCCC3)cc1", "activation (light increase)": "inactive"},
      {"smiles": "COc1cccc(NC(=O)C2CC(=O)OC23CCOC(C)(C)C3)c1", "note": "(stereo not given)", "activation (light increase)": "inactive"},
      {"smiles": "Cc1cccc(N(CC(N)=O)C2SC(=O)N(c3ccccc3)C2=O)c1", "note": "(stereo not given)", "activation (light increase)": "inactive"},
      {"smiles": "COC(=O)c1cc(COC(=O)c2ccc(OC)c(S(=O)(=O)N3CCCC3)c2)oc1C", "activation (light increase)": "inactive"},
      {"smiles": "COc1ccccc1CNC(=O)COC(=O)c1n[nH]c2ccccc12", "activation (light increase)": "inactive"},
      {"smiles": "COc1ccc(S(=O)(=O)Nc2cccc(S(=O)(=O)N3CCCC3)c2)cc1OC", "activation (light increase)": "inactive"},
      {"smiles": "CCC(=O)c1coc2ccc(O)cc12", "activation (light increase)": "inactive"},
      {"smiles": "Cn1cnc(S(=O)(=O)Nc2ccccc2Cl)c1", "activation (light increase)": "inactive"},
      {"smiles": "CCCS(=O)(=O)N1CCCC(C(=O)NCCCN(C)Cc2ccccc2)C1", "note": "(stereo not given)", "activation (light increase)": "inactive"},
      {"smiles": "O=C1C(=O)N(Cc2ccco2)C(c2cccc(Cl)c2)/C1=C(\\O)c1ccc2c(c1)OCCO2", "note": "(stereo not given)", "activation (light increase)": "inactive"},
      {"smiles": "CN(C)C(=O)CCSc1nnc(-c2ccco2)o1", "activation (light increase)": "inactive"},
      {"smiles": "CCOc1ccc2nc(SCC(=O)NC(=O)NCc3ccco3)[nH]c2c1", "activation (light increase)": "inactive"},
      {"smiles": "Cc1ccc(C)c(S(=O)(=O)Nc2ccc(-n3cnnn3)cc2)c1", "activation (light increase)": "inactive"},
      {"smiles": "O=C(O)c1cc(CN2CCOCC2)oc1-c1ccccc1", "activation (light increase)": "inactive"},
      {"smiles": "Cc1ccc(S(=O)(=O)NCCC(=O)OCC(=O)N(Cc2ccccc2)C(C)(C)C)cc1C", "activation (light increase)": "inactive"},
      {"smiles": "CCOC(=O)c1c(-c2ccccc2)csc1NC(=O)c1nn(CC)cc1Br", "activation (light increase)": "inactive"},
      {"smiles": "Cc1ccc(C)c(OCCC(=O)OCC(=O)NC2CC2)c1", "activation (light increase)": "inactive"},
      {"smiles": "CCC1(CC)NC(=O)N(CC(=O)OCC(=O)NC(=O)c2ccccc2OC)C1=O", "activation (light increase)": "inactive"},
      {"smiles": "NNC(=O)c1nnn(-c2nonc2N)c1CN1CCCC1", "activation (light increase)": "inactive"},
      {"smiles": "COC(=O)c1c(-c2ccc(Br)cc2)noc1N", "activation (light increase)": "inactive"},
      {"smiles": "O=C(COC(=O)c1ccc(Cl)nc1)Nc1ccc2ccccc2c1", "activation (light increase)": "inactive"},
      {"smiles": "CCCn1nnnc1NCc1ccc(C(C)C)cc1", "activation (light increase)": "inactive"},
      {"smiles": "O=c1ncn(-c2cccc(Cl)c2)c2ccccc12", "activation (light increase)": "inactive"},
      {"smiles": "CCOC(=O)c1c(NC(=S)Nc2ccc(Cl)cc2)sc(C)c1C", "activation (light increase)": "inactive"},
      {"smiles": "O=S(=O)(Nc1ccc(-c2ccc3nncn3n2)cc1)c1ccc(Cl)s1", "activation (light increase)": "inactive"},
      {"smiles": "CN(C1CCCCC1)S(=O)(=O)CCNC(=O)c1ccccc1", "activation (light increase)": "inactive"},
      {"smiles": "COc1ccc(-c2ccc(-c3nnc(Cc4ccc(OC)c(OC)c4)o3)cc2)cc1", "activation (light increase)": "inactive"},
      {"smiles": "Cc1ccc(S(=O)(=O)N(C)c2ccc(OCC(=O)N3CCCCC3)cc2)cc1", "activation (light increase)": "inactive"},
      {"smiles": "O=S(=O)(Nc1cccnc1)c1ccc(Oc2ccccc2)cc1", "activation (light increase)": "inactive"},
      {"smiles": "CCCOc1cc(C)c(S(=O)(=O)NCCOC)cc1C", "activation (light increase)": "inactive"},
      {"smiles": "COc1ccc(C(=O)N2CCC(C(=O)c3ccc(F)cc3)CC2)cc1", "activation (light increase)": "inactive"},
      {"smiles": "COCCNC(=O)CN1CCN(C(c2ccccc2)c2ccccc2)CC1", "activation (light increase)": "inactive"},
      {"smiles": "COc1ccc(Cl)cc1NC(=O)CN(C)C(=O)CNC(=O)C12CC3CC(CC(C3)C1)C2", "activation (light increase)": "inactive"},
      {"smiles": "O=C(Oc1ccc(=O)n(-c2ccccc2)n1)c1cccc(Cl)c1", "activation (light increase)": "inactive"},
      {"smiles": "COc1cc(OC)c(OC)cc1CNC(C)C(O)c1ccccc1", "note": "(stereo not given)", "activation (light increase)": "inactive"},
      {"smiles": "COC(=O)c1ccc(CSc2nnc3c(Cl)cc(Cl)cn23)o1", "activation (light increase)": "inactive"},
      {"smiles": "Cc1cccc(OC(C)C(=O)NC2CCS(=O)(=O)C2)c1C", "note": "(stereo not given)", "activation (light increase)": "inactive"},
      {"smiles": "CCCCN1C(=O)C(O)(CC(=O)c2ccccn2)c2ccccc21", "note": "(stereo not given)", "activation (light increase)": "inactive"},
      {"smiles": "Cc1ccc(OCCC(=O)OCC(=O)Nc2ccc3c(c2)OCO3)cc1", "activation (light increase)": "inactive"},
      {"smiles": "CC(=O)c1ccc(NC(=O)COc2ccccc2C(=O)Nc2ccccc2)cc1", "activation (light increase)": "inactive"},
      {"smiles": "CCCn1nnnc1NCc1ccc(OC)cc1OC", "activation (light increase)": "inactive"},
      {"smiles": "CN(C)S(=O)(=O)c1ccc(NC(=S)NC(=O)Cc2ccccc2)cc1", "activation (light increase)": "inactive"},
      {"smiles": "COc1cccc(CNC(=O)C2CSC3(C)CCC(=O)N23)c1", "note": "(stereo not given)", "activation (light increase)": "inactive"},
      {"smiles": "COCCCn1c(=S)[nH]c2ccc(N3CCOCC3)cc2c1=O", "activation (light increase)": "inactive"},
      {"smiles": "O=C(Nc1ccc(S(=O)(=O)Nc2ncccn2)cc1)C1CC(=O)N(c2ccccc2)C1", "note": "(stereo not given)", "activation (light increase)": "inactive"},
      {"smiles": "Cn1cnc(S(=O)(=O)Nc2ccc(OC(C)(C)C)cc2)c1", "activation (light increase)": "inactive"},
      {"smiles": "CCN(CC)C(=O)c1sc(NC(=O)Cc2ccc(OC)cc2)c(C#N)c1C", "activation (light increase)": "inactive"},
      {"smiles": "Cn1cnc(S(=O)(=O)Nc2ccc(C(F)(F)F)cc2)c1", "activation (light increase)": "inactive"},
      {"smiles": "CCNC(=O)OCc1cn(-c2ccccc2)nn1", "activation (light increase)": "inactive"},
      {"smiles": "CCCCn1c(=O)[nH]c(=O)c2c1nc(COc1ccc(C#N)cc1)n2CCC", "activation (light increase)": "inactive"},
      {"smiles": "C[C@@H]1CN([C@H](C)CO)C(=O)c2cccc(NC(=O)C3CC3)c2O[C@@H]1CN(C)S(=O)(=O)c1cccs1", "activation (light increase)": "inactive"},
      {"smiles": "Nc1nc(SCc2nc3sc4c(c3c(=O)[nH]2)CCCC4)n[nH]1", "activation (light increase)": "inactive"},
      {"smiles": "Cn1cnc(S(=O)(=O)Nc2ccccc2)c1", "activation (light increase)": "inactive"},
      {"smiles": "Cc1cc(C)n2cc(COc3ccc4ccccc4c3)nc2n1", "activation (light increase)": "inactive"},
      {"smiles": "O=C(c1cc2ccccc2cc1O)N1CCN(c2ccccc2O)CC1", "activation (light increase)": "inactive"},
      {"smiles": "CCOC(=O)C1CCCN(C(=O)c2cc3c(OC)c(OC)c(OC)cc3[nH]2)C1", "note": "(stereo not given)", "activation (light increase)": "inactive"},
      {"smiles": "Cc1ccccc1-n1nnnc1-c1ccccc1", "activation (light increase)": "inactive"},
      {"smiles": "COc1ccc2nc(SC(C)C(=O)NCC(=O)Nc3ccc(F)c(F)c3F)[nH]c2c1", "note": "(stereo not given)", "activation (light increase)": "inactive"},
      {"smiles": "O=S(=O)(Nc1ccccn1)c1ccccc1", "activation (light increase)": "inactive"}
    ]},
    {"molecular_target": "V. cholerae BH1651 luxOD47E, luciferase light induction, 6 h", "experiment": "Luciferase light induction in v cholerae bh1651, agonist dose response, confirmatory (AID 624254)", "details": "not given", "units": {"AC50": "nM"}, "values": [
      {"smiles": "COc1ccc(N2CCN(C(=O)COc3ccc4ccccc4c3)CC2)cc1", "AC50": 35100},
      {"smiles": "O=C(CCN1C(=O)c2ccccc2C1=O)N1CCN(C2c3ccccc3-c3ccccc32)CC1", "AC50": 209},
      {"smiles": "C[C@H]1CN([C@@H](C)CO)C(=O)c2cccc(NC(=O)Nc3ccc4c(c3)OCO4)c2O[C@@H]1CN(C)S(=O)(=O)c1ccccc1", "AC50": 2250},
      {"smiles": "O=C(Cn1cccc1C(=O)c1ccccc1)NCCN1CCCCCC1", "AC50": 25600},
      {"smiles": "COc1ccccc1NC(=O)c1nn(-c2ccc(Cl)cc2)ccc1=O", "AC50": 377},
      {"smiles": "O=C(NCc1ccccn1)C(C(=O)c1ccc(F)cc1)n1ccccc1=O", "note": "(stereo not given)", "AC50": 49.3},
      {"smiles": "COc1cccc(OCC(=O)NC2CCCCC2)c1", "AC50": 2430},
      {"smiles": "CCCOc1ccc(-c2nc(OC)c3ccccc3n2)cc1", "AC50": 7010},
      {"smiles": "Cc1ccc2onc(CC(=O)O)c2c1", "AC50": 8360}
    ]}
  ]
}
